# From PMC12775434, “Ultra-large virtual screening unveils potent agonists of the neuromodulatory orphan receptor GPR139” (Nature Communications, 2025)
# Where “and” joins values, the source holds several entries; their conditions need not be identical. Identical values can stand only once.
# Columns and labels:
# GPR139 [1] = target: T1, GPR139 (Homo sapiens, UniProt Q6DWJ6); assay: Ca2+ mobilization assay, agonist mode, stable GPR139-CHOk1 cell line; assay type: cell-based; conditions: Agonist mode; individual replicates (Supplementary Figure 1)
# T1 sequence (Q6DWJ6 1-353): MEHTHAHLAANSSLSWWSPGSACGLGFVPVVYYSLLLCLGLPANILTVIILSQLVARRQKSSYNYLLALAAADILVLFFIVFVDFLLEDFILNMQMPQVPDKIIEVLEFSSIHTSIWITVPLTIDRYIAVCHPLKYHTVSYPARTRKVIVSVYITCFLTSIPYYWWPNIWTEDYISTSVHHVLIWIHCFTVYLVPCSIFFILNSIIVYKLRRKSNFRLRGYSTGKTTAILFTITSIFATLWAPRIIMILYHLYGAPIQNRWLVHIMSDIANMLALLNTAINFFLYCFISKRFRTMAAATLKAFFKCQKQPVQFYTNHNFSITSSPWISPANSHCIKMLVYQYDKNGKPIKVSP
# Experimental: Primary screening and pharmacological characterization of compounds were performed using a CHO-K1 cell line that stably expresses human GPR139 (GPR139-CHOk1). The GPR139-CHOk1 cell line was kindly provided by H. Lundbeck A/S, Denmark[24]. GPR139-CHOk1 cells were grown in Ham’s F-12 Kaighn’s Modification Medium (ThermoFisher #21127030) supplemented with 10% dialyzed fetal bovine serum (US origin, ThermoFisher #26400044), 100 units/mL Penicillin-Streptomycin (ThermoFisher #15140122), and 1 mg/mL Geneticin (ThermoFisher #11811031). […] M1R-CHOk1 cells were purchased from The Missouri S&T cDNA Resource Center (#CEM100TN00). M1R-CHOk1 cells were grown in Ham’s F12 Medium (ThermoFisher #21765029) supplemented with 10% fetal bovine serum (Brazilian origin, ThermoFisher #10270106), 100 units/mL Penicillin-Streptomycin, and 0.25 mg/mL Geneticin. HEK293A cells transiently transfected with GPR139 were used for additional pharmacological assessment of signaling pathways activated by GPR139. HEK239A cells were generously provided by Dr. Asuka Inoue, Tohoku University, Japan. HEK293A cells were grown in Dulbecco’s Modified Eagle Medium (ThermoFisher #31966047) supplemented with 10% dialyzed fetal bovine serum and 100 units/mL Penicillin-Streptomycin. Cell lines were maintained at 37 °C in humidified incubator equilibrated with 5% CO2.
# (§1) 30,000 GPR139- or M1R-CHOk1 cells/well were seeded in black clear bottom tissue culture treated 96-well plates (Greiner #655090) and grown for 20–24 h. Cells were washed with HEPES buffer (Hank’s Balanced Salt Solution (HBBS) supplemented with 20 mM HEPES, 1 mM MgCl2, and 1 mM CaCl2; pH 7.4). Cells were loaded with 50 µL of 2 µM Fluo-4 AM dye (ThermoFisher #F14202) in HEPES buffer supplemented with 2.5 mM probenecid and 0.01% Pluronic F-68 (ThermoFisher #24040032) for 1 h at 37 °C. Cells were washed with HEPES buffer. 50 µL HEPES buffer supplemented with 2.5 mM probenecid was added, and the cells were incubated for 10 min at 37 °C before measurement. 50 µL test compounds diluted in HEPES buffer from DMSO stocks (final DMSO concentration of maximally 0.3%) were added automatically after baseline measurements. The intracellular calcium mobilization was measured on a FlexStation 3 Multimode Microplate Reader (Molecular Devices) at 37 °C with filters for excitation of 485 nm and emission of 525 nm.
# (§2) Our primary compound screening protocol consisted of two subsequent steps that allowed to screen for agonists and antagonists simultaneously. In the first step, the screening compounds were applied at 10 µM to test for agonist activity (agonist mode). Following 20 min incubation with the compounds added in the first step, in the second step, an EC80 concentration (800 nM) of the reference agonist Lundbeck Cmp 1a was applied to test for antagonist activity (antagonist mode).
# Pharmacological data and statistical analyses were performed in GraphPad Prism v9–10 (Graphpad Software Inc., San Diego, CA), which are also specifically described in the figure and table legends. The functional assay responses were normalized to buffer (0%) and Lundbeck Cmp 1a or JNJ-63533054 (100%), for Ca^2+ and IP1 experiments in the GPR139-CHOk1 stable cell line or Ca^2+, G protein activation, and arrestin-3 recruitment experiments in the HEK293A cells transiently transfected with GPR139, respectively. Data are from at least three independent experiments, unless stated otherwise. Concentration-response curves were fitted applying non-linear regression using the log (agonist) versus response model with variable slope. ANOVA was applied for comparing results and determining statistical significance.
# GPR139 [2] = target: T1, GPR139; assay: Ca2+ mobilization assay, antagonist mode (EC80 800 nM Lundbeck Cmp 1a after 20 min preincubation), GPR139-CHOk1; assay type: cell-based; conditions: individual replicates (Supplementary Figure 1)
# Experimental: as §1
# as §2, with “(antagonist mode). In the agonist mode (first step) response is seen only with compounds having agonist activity (Cmp 1a), but not with non-receptor-binding compounds (Vehicle) or antagonists (NCRW0105-E06) (Supplementary Fig. 14). […] No antagonist compounds were identified in this study.” for “(antagonist mode).”
Compound,Ca2+ signal (% of Cmp 1a) (GPR139 [1]),Ca2+ signal (% of Cmp 1a) (GPR139 [2])
"O=C(NCC1CC=CCC1)Nc1cnn(-c2cnc3ccccc3n2)c1 (centres unmarked) [Compound 28, O=C(NCC1CCC=CC1)NC=2C=NN(C2)C=3C=NC=4C=CC=CC4N3]",-7.43 % of Cmp 1a and 8 % of Cmp 1a and 9 % of Cmp 1a,78.5136 % of Cmp 1a and 66.4897 % of Cmp 1a and 98.5524 % of Cmp 1a
"Cc1ccc(Oc2ccc(NC(=O)C(C)n3cccn3)cn2)cc1 (centres unmarked) [Compound 59, CC(C(=O)NC=1C=CC(OC=2C=CC(C)=CC2)=NC1)N3C=CC=N3]",-2 % of Cmp 1a and -8 % of Cmp 1a and 2.12 % of Cmp 1a,78.8114 % of Cmp 1a and 81.7621 % of Cmp 1a and 78.2182 % of Cmp 1a
"Cc1ccc(-c2nc(CC(=O)NCc3ccccc3)cs2)cc1 [Compound 68, CC=1C=CC(=CC1)C2=NC(CC(=O)NCC=3C=CC=CC3)=CS2]",-9 % of Cmp 1a and 15 % of Cmp 1a and 19 % of Cmp 1a,60.0488 % of Cmp 1a and 59.0311 % of Cmp 1a and 102.015 % of Cmp 1a
"CC(=O)Nc1nc(Cn2cnc3c2CC(C)C(C)C3)cs1 (centres unmarked) [Compound 47, CC1CC=2N=CN(CC3=CSC(NC(=O)C)=N3)C2CC1C]",-0.697 % of Cmp 1a and 10 % of Cmp 1a and 0.881 % of Cmp 1a,79.7228 % of Cmp 1a and 79.8068 % of Cmp 1a and 92.3954 % of Cmp 1a
"Cc1ccc(C(C)(C)NC(=O)Nc2cnc3nccn3c2)cn1 [Compound 56, CC=1C=CC(=CN1)C(C)(C)NC(=O)NC=2C=NC3=NC=CN3C2]",5.3 % of Cmp 1a,82.8713 % of Cmp 1a
"O=C(CCn1cncn1)Nc1ccc(Oc2ccc(Cl)cc2)nc1 [Compound 66, ClC=1C=CC(OC=2C=CC(NC(=O)CCN3C=NC=N3)=CN2)=CC1]",6.43 % of Cmp 1a and -3.62 % of Cmp 1a and -6 % of Cmp 1a,74.4571 % of Cmp 1a and 74.7932 % of Cmp 1a and 88.8781 % of Cmp 1a
"Cc1nnsc1C(=O)N1CCCC1c1nc2cc(Cl)ccc2[nH]1 (centres unmarked) [Compound 38, CC=1N=NSC1C(=O)N2CCCC2C3=NC=4C=C(Cl)C=CC4N3]",1.3 % of Cmp 1a and 1.18 % of Cmp 1a and -5.34 % of Cmp 1a,85.3922 % of Cmp 1a and 96.4303 % of Cmp 1a and 86.2753 % of Cmp 1a
"O=C(NCc1ccc(Cl)s1)c1ccnc(-n2cncn2)c1 [Compound 64, ClC1=CC=C(CNC(=O)C=2C=CN=C(C2)N3C=NC=N3)S1]",-4 % of Cmp 1a and -5 % of Cmp 1a and -0.942 % of Cmp 1a,87.3464 % of Cmp 1a and 90.999 % of Cmp 1a and 82.6211 % of Cmp 1a
"CC(C)(NC(=O)Nc1ccccc1)C(=O)Nc1cnc2ccccc2c1 [Compound 20, CC(C)(NC(=O)NC=1C=CC=CC1)C(=O)NC=2C=NC=3C=CC=CC3C2]",2.84 % of Cmp 1a and -2.82 % of Cmp 1a and 13 % of Cmp 1a,73.2682 % of Cmp 1a and 77.4411 % of Cmp 1a and 81.0233 % of Cmp 1a
"O=C(Nc1ccnc(-c2ccccc2)n1)C1COc2ccccc21 (centres unmarked) [Compound 31, O=C(NC=1C=CN=C(N1)C=2C=CC=CC2)C3COC=4C=CC=CC34]",-5 % of Cmp 1a and 0.292 % of Cmp 1a and -0.778 % of Cmp 1a,69.7439 % of Cmp 1a and 83.7645 % of Cmp 1a and 84.6387 % of Cmp 1a
